In patent US11208412B2 (DAEGU-GYEONGBUK MEDICAL INNOVATION FOUNDATION, priority 2017, dated 2021):

Legend:
Experiment in all cases: Kinase selectivity, DiscoverX scanMAX Kinase assay panel (% control)
Type in all cases: binding
[1] = target: T1, kinases of the scanMAX Kinase assay panel (Homo sapiens, UniProt P0C1S8); settings: kinase WEE2; 1 uM in DMSO
T1 construct: purchased DiscoverX Co. (contract measurement) scanMAX Kinase assay panel
Summary of the method: (§1)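 Compounds were tested at 1 uM (in DMSO) against each panel kinase. % control was calculated as (compound − positive control)/(negative control − positive control)×100, where the positive control gives 0% and DMSO gives 100%. Activity toward a kinase was called at % control <35%.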

[2] = target: T2, kinases of the scanMAX Kinase assay panel (Homo sapiens, UniProt P10721, V559D); settings: KIT(V559D); 1 uM
T2 construct: purchased DiscoverX Co. (contract measurement) scanMAX Kinase assay panel
Summary of the method: as §1

[3] = target: T3, kinases of the scanMAX Kinase assay panel (Homo sapiens, UniProt P22694); settings: PKAC-beta; 1 uM
T3 construct: purchased DiscoverX Co. (contract measurement) scanMAX Kinase assay panel
Summary of the method: as §1

[4] = target: T4, kinases of the scanMAX Kinase assay panel (Homo sapiens, UniProt P29322); settings: EPHA8; 1 uM
T4 construct: purchased DiscoverX Co. (contract measurement) scanMAX Kinase assay panel
T4 sequence (P29322 28-1005): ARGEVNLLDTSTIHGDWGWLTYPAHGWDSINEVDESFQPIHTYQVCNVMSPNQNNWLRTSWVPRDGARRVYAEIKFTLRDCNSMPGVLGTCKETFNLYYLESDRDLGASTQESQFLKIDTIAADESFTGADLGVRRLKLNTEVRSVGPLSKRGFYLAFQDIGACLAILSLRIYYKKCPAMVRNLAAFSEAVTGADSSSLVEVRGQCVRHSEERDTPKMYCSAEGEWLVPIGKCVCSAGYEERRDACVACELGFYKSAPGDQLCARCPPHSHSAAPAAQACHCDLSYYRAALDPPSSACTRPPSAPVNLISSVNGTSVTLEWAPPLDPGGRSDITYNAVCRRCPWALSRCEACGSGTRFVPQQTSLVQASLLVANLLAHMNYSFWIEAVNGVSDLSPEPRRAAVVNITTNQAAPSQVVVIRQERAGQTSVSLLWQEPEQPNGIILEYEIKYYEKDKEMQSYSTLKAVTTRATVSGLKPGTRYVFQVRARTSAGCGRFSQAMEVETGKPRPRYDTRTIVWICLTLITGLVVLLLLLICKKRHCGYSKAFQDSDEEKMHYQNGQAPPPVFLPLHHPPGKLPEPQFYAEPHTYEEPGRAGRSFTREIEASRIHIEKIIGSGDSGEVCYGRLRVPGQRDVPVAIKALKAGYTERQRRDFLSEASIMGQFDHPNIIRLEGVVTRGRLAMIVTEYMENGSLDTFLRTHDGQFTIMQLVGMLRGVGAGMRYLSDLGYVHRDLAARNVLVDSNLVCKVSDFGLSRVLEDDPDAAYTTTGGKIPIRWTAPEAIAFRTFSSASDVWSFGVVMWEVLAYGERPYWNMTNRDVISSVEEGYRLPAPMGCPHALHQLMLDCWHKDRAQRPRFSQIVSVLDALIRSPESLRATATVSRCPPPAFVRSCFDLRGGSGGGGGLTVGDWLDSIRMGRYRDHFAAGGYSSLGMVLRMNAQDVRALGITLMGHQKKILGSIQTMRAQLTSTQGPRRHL
Summary of the method: as §1

[5] = target: T5, kinases of the scanMAX Kinase assay panel (Homo sapiens, UniProt P36894); settings: BMPR1A; 1 uM
T5 construct: purchased DiscoverX Co. (contract measurement) scanMAX Kinase assay panel
Summary of the method: as §1

[6] = target: T6, kinases of the scanMAX Kinase assay panel (Homo sapiens, UniProt P42345); settings: MTOR; 1 uM
T6 construct: purchased DiscoverX Co. (contract measurement) scanMAX Kinase assay panel
Summary of the method: as §1

[7] = target: T7, kinases of the scanMAX Kinase assay panel (Homo sapiens, UniProt P42685); settings: FRK; 1 uM
T7 construct: purchased DiscoverX Co. (contract measurement) scanMAX Kinase assay panel
T7 sequence (P42685 whole entry): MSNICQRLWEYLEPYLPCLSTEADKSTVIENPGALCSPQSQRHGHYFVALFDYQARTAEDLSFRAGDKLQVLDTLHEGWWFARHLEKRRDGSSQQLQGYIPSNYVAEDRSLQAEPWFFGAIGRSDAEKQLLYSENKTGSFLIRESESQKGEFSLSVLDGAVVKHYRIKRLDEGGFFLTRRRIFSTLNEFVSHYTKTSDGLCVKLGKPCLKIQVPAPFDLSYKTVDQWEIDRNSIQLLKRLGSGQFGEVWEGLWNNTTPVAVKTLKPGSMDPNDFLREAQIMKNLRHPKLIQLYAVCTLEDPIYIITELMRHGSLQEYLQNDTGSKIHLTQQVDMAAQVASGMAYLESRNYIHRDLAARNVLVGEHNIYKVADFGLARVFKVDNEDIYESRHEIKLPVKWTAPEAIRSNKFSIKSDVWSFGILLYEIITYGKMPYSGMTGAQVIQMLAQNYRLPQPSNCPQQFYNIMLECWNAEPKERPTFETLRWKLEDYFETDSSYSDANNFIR
Summary of the method: as §1

[8] = target: T8, kinases of the scanMAX Kinase assay panel (Homo sapiens, UniProt P78362); settings: kinase SRPK2; 1 uM in DMSO
T8 construct: purchased DiscoverX Co. (contract measurement) scanMAX Kinase assay panel
T8 sequence (P78362 whole entry): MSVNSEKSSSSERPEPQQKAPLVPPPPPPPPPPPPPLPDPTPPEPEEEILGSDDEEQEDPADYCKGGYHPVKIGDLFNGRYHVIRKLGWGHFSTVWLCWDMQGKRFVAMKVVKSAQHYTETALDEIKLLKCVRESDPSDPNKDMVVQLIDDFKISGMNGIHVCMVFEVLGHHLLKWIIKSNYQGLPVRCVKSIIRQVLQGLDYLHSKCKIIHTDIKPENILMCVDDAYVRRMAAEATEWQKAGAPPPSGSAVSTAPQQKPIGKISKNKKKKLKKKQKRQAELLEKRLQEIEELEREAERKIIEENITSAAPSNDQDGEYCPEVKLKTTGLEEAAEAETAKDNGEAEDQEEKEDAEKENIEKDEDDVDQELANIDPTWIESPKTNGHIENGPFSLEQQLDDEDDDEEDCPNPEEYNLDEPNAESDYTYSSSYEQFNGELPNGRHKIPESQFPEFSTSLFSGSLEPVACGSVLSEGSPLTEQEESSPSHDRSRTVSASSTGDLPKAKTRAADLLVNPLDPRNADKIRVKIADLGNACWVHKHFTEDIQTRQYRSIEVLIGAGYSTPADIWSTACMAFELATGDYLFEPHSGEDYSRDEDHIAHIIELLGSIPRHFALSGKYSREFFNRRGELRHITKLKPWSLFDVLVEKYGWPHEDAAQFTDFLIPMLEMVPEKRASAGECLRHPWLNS
Summary of the method: as §1

[9] = target: T9, kinases of the scanMAX Kinase assay panel (Homo sapiens, UniProt Q02763); settings: kinase TIE2; 1 uM in DMSO
T9 construct: purchased DiscoverX Co. (contract measurement) scanMAX Kinase assay panel
T9 sequence (Q02763 23-1124): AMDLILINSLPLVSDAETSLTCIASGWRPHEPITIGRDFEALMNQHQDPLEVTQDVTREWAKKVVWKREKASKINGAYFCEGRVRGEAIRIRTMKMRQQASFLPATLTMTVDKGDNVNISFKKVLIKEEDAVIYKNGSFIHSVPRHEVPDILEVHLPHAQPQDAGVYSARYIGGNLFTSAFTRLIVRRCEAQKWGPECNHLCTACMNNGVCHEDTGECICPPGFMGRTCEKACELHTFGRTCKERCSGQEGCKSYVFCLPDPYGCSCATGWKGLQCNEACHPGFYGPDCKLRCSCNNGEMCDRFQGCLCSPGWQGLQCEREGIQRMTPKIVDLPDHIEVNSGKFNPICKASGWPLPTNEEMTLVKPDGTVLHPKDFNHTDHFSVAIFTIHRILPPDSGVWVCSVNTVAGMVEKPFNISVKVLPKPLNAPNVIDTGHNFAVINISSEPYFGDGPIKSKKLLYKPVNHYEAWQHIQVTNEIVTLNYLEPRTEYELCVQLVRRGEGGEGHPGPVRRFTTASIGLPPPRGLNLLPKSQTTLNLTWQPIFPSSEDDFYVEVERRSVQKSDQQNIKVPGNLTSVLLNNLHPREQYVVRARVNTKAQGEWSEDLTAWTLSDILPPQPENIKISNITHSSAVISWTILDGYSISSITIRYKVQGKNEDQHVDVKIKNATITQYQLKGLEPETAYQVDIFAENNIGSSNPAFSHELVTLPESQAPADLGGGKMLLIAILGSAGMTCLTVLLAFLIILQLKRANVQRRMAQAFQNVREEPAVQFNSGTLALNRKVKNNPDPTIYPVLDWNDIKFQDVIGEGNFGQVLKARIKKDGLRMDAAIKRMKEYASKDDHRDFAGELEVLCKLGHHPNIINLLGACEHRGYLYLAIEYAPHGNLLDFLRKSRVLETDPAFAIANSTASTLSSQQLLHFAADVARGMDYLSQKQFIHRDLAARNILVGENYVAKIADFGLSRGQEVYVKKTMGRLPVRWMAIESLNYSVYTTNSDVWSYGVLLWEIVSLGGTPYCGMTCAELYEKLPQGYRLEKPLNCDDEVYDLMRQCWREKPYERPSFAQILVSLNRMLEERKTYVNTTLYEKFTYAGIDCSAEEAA
Summary of the method: as §1

[10] = target: T10, kinases of the scanMAX Kinase assay panel (Homo sapiens, UniProt Q16512); settings: PKN1; 1 uM
T10 construct: purchased DiscoverX Co. (contract measurement) scanMAX Kinase assay panel
T10 sequence (Q16512 whole entry): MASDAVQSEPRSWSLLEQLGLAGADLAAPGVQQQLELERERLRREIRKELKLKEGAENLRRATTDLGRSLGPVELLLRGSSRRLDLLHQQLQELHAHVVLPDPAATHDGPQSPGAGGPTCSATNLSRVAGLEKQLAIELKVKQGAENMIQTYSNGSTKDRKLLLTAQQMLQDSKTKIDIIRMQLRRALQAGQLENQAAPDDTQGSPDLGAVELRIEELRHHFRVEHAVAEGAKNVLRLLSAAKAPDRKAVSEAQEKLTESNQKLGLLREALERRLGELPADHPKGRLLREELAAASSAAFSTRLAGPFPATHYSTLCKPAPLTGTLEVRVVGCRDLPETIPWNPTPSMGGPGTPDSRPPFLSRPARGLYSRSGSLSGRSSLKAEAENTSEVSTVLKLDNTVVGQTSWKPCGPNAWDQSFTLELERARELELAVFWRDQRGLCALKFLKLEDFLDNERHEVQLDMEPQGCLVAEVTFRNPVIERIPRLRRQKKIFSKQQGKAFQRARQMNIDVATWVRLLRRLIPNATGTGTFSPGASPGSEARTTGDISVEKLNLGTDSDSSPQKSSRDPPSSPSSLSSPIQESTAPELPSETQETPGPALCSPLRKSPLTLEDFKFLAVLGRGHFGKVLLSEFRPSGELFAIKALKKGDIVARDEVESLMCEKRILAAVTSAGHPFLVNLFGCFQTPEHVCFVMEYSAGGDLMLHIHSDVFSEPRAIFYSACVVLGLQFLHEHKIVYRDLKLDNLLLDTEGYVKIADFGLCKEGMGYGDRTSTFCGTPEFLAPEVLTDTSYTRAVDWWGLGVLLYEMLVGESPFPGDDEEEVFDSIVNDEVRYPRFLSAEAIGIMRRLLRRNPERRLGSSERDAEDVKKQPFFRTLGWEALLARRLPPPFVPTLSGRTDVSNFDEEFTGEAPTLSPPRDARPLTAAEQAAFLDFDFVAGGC
Summary of the method: as §1

[11] = target: T11, kinases of the scanMAX Kinase assay panel (Homo sapiens, UniProt Q86UE8); settings: kinase TLK2; 1 uM in DMSO
T11 construct: purchased DiscoverX Co. (contract measurement) scanMAX Kinase assay panel
T11 sequence (Q86UE8 whole entry): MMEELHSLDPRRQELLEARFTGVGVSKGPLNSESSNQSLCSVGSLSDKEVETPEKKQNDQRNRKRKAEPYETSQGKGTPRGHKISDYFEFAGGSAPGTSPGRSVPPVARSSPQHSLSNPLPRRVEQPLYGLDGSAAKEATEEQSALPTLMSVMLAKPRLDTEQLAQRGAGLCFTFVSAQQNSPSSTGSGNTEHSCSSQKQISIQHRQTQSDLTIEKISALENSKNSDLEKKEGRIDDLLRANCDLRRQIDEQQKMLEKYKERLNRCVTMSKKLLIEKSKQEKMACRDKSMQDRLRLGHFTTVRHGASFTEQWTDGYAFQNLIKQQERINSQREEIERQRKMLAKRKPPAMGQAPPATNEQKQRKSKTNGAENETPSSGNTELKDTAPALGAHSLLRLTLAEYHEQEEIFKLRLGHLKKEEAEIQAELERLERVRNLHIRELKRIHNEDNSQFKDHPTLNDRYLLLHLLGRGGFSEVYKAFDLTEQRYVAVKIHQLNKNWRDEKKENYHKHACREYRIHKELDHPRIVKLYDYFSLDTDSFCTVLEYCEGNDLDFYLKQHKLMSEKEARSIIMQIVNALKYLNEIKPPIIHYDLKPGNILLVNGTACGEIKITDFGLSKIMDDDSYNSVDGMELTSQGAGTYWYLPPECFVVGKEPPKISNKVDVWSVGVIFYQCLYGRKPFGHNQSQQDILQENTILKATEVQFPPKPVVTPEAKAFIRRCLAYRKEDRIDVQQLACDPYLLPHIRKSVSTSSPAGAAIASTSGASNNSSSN
Summary of the method: as §1

[12] = target: T12, kinases of the scanMAX Kinase assay panel (Homo sapiens, UniProt Q9H0K1); settings: kinase SIK2; 1 uM in DMSO
T12 construct: purchased DiscoverX Co. (contract measurement) scanMAX Kinase assay panel
T12 sequence (Q9H0K1 whole entry): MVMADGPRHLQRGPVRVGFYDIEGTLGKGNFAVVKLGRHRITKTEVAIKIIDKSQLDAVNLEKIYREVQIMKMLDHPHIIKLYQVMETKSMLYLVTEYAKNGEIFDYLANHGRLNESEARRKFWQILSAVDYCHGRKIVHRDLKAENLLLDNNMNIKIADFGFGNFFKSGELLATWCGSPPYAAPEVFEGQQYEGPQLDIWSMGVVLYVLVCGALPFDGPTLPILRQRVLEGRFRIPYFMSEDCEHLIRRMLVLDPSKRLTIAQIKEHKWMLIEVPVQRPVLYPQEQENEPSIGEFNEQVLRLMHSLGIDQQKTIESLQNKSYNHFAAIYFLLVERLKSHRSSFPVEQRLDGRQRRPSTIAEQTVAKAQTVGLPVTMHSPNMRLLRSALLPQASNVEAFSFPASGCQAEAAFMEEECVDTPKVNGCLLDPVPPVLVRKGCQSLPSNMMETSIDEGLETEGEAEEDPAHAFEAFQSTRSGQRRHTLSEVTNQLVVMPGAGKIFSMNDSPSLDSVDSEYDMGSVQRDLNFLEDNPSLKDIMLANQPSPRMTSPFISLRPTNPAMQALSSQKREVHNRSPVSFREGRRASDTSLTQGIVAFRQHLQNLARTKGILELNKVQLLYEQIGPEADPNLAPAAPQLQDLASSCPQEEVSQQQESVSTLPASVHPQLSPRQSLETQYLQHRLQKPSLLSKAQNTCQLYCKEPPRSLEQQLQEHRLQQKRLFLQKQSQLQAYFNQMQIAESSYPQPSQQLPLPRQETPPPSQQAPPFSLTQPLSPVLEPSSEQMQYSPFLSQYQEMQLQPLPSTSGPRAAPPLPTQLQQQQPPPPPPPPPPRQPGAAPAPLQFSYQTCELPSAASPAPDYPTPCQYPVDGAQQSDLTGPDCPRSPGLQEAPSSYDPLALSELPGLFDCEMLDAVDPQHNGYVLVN
Summary of the method: as §1

Row | SMILES | remaining binding at 1 µM [1] [%] | remaining binding at 1 µM [2] [%] | remaining binding at 1 µM [3] [%] | remaining binding at 1 µM [4] [%] | remaining binding at 1 µM [5] [%] | remaining binding at 1 µM [6] [%] | remaining binding at 1 µM [7] [%] | remaining binding at 1 µM [8] [%] | remaining binding at 1 µM [9] [%] | remaining binding at 1 µM [10] [%] | remaining binding at 1 µM [11] [%] | remaining binding at 1 µM [12] [%]
1 | CNc1nc(Nc2ccc(C(=O)N3CCOCC3)cc2OC)nc2[nH]cc(C#N)c12 [Example 1, 2-((2-methoxy-4-(morpholine-4-carbonyl)phenyl)amino)-4-(methylamino)-7H-pyrrolo[2,3-d]pyrimidine-5-carbonitrile] | 100 | 38 | 89 | 97 | 94 | 100 | 97 | 100 | 92 | 100 | 95 | 100
2 | CC1(Nc2nc(Nc3cnn([C@H]4CCN(C5COC5)C[C@@H]4F)c3Cl)nc3[nH]cc(C#N)c23)CC1 [Example 52, 2-((5-chloro-1-((3S,4S)-3-fluoro-1-(oxetane-3-yl)piperidine-4-yl)-1H-pyrazole-4-yl)amino)((1-methylcyclopropyl)amino)-7H-pyrrolo[2,3-d]pyrimidine-5-carbonitrile] | 100 | 0 | 95 | 86 | 100 | 66 | 49 | 58 | 46 | 67 | 42 | 33
3 | CCNc1nc(Nc2ccc(C(=O)N3CCC(N4CCOCC4)CC3)cc2OC)nc2[nH]cc(C(F)(F)F)c12 [Example 104, (4-((4-(ethylamino)-5-(trifluoromethyl)-7H-pyrrolo[2,3-d]pyrimidine-2-yl)amino)-3-methoxyphenyl)(4-morpholinopiperidine-1-yl)methanone] | 100 | 46 | 100 | 93 | 100 | 100 | 77 | 74 | 100 | 95 | 93 | 100
